From the NIST ThermoML archive (doi:10.1016/j.tca.2013.08.007)

Assay: mn = molality of the nth substance listed, in mol/kg
Settings: 101 kPa, Liquid, Vibrating tube method

[Cl-].[Na+] [sodium chloride] + O
mass density [kg/m3]
Settings | m1 = 0.2 | m1 = 0.4 | m1 = 0.6 | m1 = 0.8 | m1 = 1 | m1 = 1.5
288.15 K | 1007.43 | 1015.66 | 1023.65 | 1031.47 | 1039.16 | 1058.09
298.15 K | 1005.16 | 1013.14 | 1020.96 | 1028.64 | 1036.19 | 1054.58
308.15 K | 1002.07 | 1009.91 | 1017.59 | 1025.13 | – | 1050.69
318.15 K | 998.17 | 1005.91 | – | 1020.82 | 1028.35 | 1046.38
